Experimental data taken from PubChem BioAssay (NCI).
Values joined by “and” are separate entries in the source; they are usually repeats but may differ in a detail not shown here. Identical values can stand only once.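 These data come from cells grown in 96-well plates and exposed to compound for 48 hours at five concentrations. The concentration for 50% growth inhibition is given as GI50. TGI is the concentration that stops growth completely.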

Tests used:
Assay in all cases: growth of human tumour cells (NCI), 48 h
CCRF-CEM leukemia = system: CCRF-CEM leukemia
IGROV1 ovarian = system: IGROV1 ovarian
HCC-2998 colon = system: HCC-2998 colon
ACHN renal = system: ACHN renal
SF-539 CNS = system: SF-539 CNS
NCI-H460 lung = system: NCI-H460 lung
HCT-116 colon = system: HCT-116 colon
K-562 leukemia = system: K-562 leukemia
MDA-MB-231 breast = system: MDA-MB-231 breast
RPMI-8226 leukemia = system: RPMI-8226 leukemia

Row | Compound | GI50 (CCRF-CEM leukemia) [µM] | TGI (CCRF-CEM leukemia) | GI50 (IGROV1 ovarian) [µM] | TGI (IGROV1 ovarian) | GI50 (HCC-2998 colon) [µM] | TGI (HCC-2998 colon) | GI50 (ACHN renal) | TGI (ACHN renal) | GI50 (SF-539 CNS) | TGI (SF-539 CNS) | GI50 (NCI-H460 lung) | TGI (NCI-H460 lung) | GI50 (HCT-116 colon) | TGI (HCT-116 colon) | GI50 (K-562 leukemia) [µM] | TGI (K-562 leukemia) | GI50 (MDA-MB-231 breast) | TGI (MDA-MB-231 breast) [µM] | GI50 (RPMI-8226 leukemia) | TGI (RPMI-8226 leukemia)
1 | COc1ccc(COc2cc3oc(=O)c4cc(C(C)O)ccc4c3cc2OC)cc1 (centres undefined) | > 21.6 | > 100 µM | 11.5 | > 83.1 µM | > 31.4 | > 100 µM | 23.1 µM | > 100 µM | 9.97 µM | 33 µM | 12.6 µM | > 100 µM | 13.3 µM | > 100 µM | 73.4 | > 100 µM | 9.6 µM | 97.5 | > 28.8 µM | > 100 µM
2 | COc1ccc2c(c1)C(=O)c1c-2c(=O)n(CCCN(C)C)c2cc(OC)c(OC)cc12 | 0.05 | 12.2 µM | 10.1 | 21.8 µM | 14.1 | 27.3 µM | 2.76 µM | 14.4 µM | 3.61 µM | 14.9 µM | 0.273 µM | 11.4 µM | 4.53 µM | 21.4 µM | 4.75 | 24 µM | 14.4 µM | 28.5 | 8.14 µM | 42.3 µM
3 | Cc1cc(O)c2c3c(ccc2c1)C(=O)c1c(O)cccc1C3=O | – | > 100 µM | – | > 20.3 µM | – | > 100 µM | – | > 100 µM | – | 50.5 µM | – | > 27 µM | – | > 100 µM | – | > 100 µM | – | > 100 | – | > 100 µM
4 | O=c1[nH]c2ccccc2n1C1CCN(CCCC(c2ccc(F)cc2)c2ccc(F)cc2)CC1 | 2.3 | 6.76 µM and 30.3 µM | 1.96 | 3.86 µM and 32.4 µM | 1.5 | 2.9 µM and 3.84 µM | 1.66 µM and 10.9 µM | 3.16 µM and 24.7 µM | 1.88 µM and 3.35 µM | 3.58 µM and 9.28 µM | 1.75 µM and 4.26 µM | 3.4 µM and 12 µM | 1.44 µM and 5.67 µM | 3.14 µM and 17.8 µM | 1.88 | 4.54 µM and 17.4 µM | 1.33 µM and 7.38 µM | – | 2.06 µM and 3.96 µM | 8.97 µM and 20.4 µM
5 | CC(=O)N(O)c1ccc(/C=C/c2ccccc2)cc1 | 0.137 | > 100 µM | 1.14 | 7.41 µM | 1.65 | 3.76 µM | 0.26 µM | 2.08 µM | 2.43 µM | 35.1 µM | 0.247 µM | 8.39 µM | 1.12 µM | 13.4 µM | 7.39 | > 100 µM | 3.41 µM | 21.8 | 3.21 µM | > 100 µM
6 | CCn1ccnc1C(=O)/C=C/c1ccc(CC(=O)Nc2ccc(F)cc2)cc1 | 4.35 | 16.3 µM | 4.63 | > 16.7 µM | 5.1 | > 16.7 µM | 3.95 µM | 11.7 µM | 2.93 µM | 6.15 µM | 2.64 µM | 6.51 µM | 1.84 µM | 4.4 µM | 2.06 | > 16.7 µM | 4.36 µM | > 16.7 | 2.28 µM | 8.09 µM
7 | COc1ccc(-c2c3c(N)c4c(nc3nc3c2c(C)nn3-c2ccccc2)CCCC4)cc1 | 2.18 | 6.86 µM | 4.26 | 18.6 µM | 3.51 | 12.7 µM | 4.32 µM | 15.1 µM | 14.5 µM | 29.2 µM | 3.28 µM | 11.3 µM | 2.15 µM | 5.48 µM | 2.3 | 6.85 µM | 4.15 µM | 16.9 | 1.92 µM | 4.32 µM
8 | COc1cc2c(cc1NC(=O)C(Cl)Cl)-c1ccc(NC(=O)C(Cl)Cl)cc1C2 | 12.1 | 98.6 µM | 1.16 | 5.58 µM | 0.976 | 2.38 µM | 0.268 µM | 0.971 µM | 0.633 µM | 2.22 µM | 0.25 µM | 0.69 µM | 0.136 µM | 0.271 µM | 0.438 | 3.64 µM | 0.499 µM | 2 | 0.374 µM | 1.21 µM
9 | O=S(=O)(O)c1ccc2cc3nn(-c4ccc(/C=C/c5ccc(-n6nc7cc8ccc(S(=O)(=O)O)cc8cc7n6)cc5S(=O)(=O)O)c(S(=O)(=O)O)c4)nc3cc2c1 | 30.8 | > 100 µM | 27 | > 100 µM | 73.8 | > 100 µM | 81.6 µM | > 100 µM | > 100 µM | > 100 µM | 50.9 µM | > 100 µM | 23.6 µM | > 100 µM | 61 | > 100 µM | 37 µM | > 100 | > 100 µM | > 100 µM
